Results reported in patent US7767822B2, “Water-soluble tetrazolium salts” (Bayer Healthcare LLC, priority 2005, dated 2010).
Read-outs that look alike come from different tables or passages of the source.

Columns and labels:
[1] = Solubility of tetrazolium salts in 0.2M phosphate buffer; type: physicochemical
[2] = Absorption spectra of formazans formed from the tetrazolium salts; type: physicochemical; conditions: 100 μM tetrazolium salt in 100 mM potassium phosphate buffer, 5-fold excess ascorbate; compared with HTC-045
Experimental: The compounds prepared and tested for their solubility had somewhat different spectral properties. The absorption spectra of each formazan formed from the tetrazolium salt and tested for solubility in Table 1 was measured with a Hewlett Packard Model 8453 diode-array UV-visible spectrophotometer. Solutions of 100 μM of a tetrazolium salt were prepared in 100 mM potassium phosphate buffer. The formazan spectra were measured after the addition of 5-fold excess ascorbate acid salt to convert the tet salts to their formazans.

[3] = 0.2M phosphate buffer, pH ~7.5, room temperature

Question: With “5-[4-(3-trimethylammonium) propoxy-3-methoxy-phenyl]-3-[2-(3-trimethylammonium) propoxy-phenyl]-2-(6-ethoxy-benzothiazol-2-yl)-2H-tetrazolium tribromide salt [Example 9]” as the molecule, how does the “Solubilility” value [1, 3] read?
Answer: 260 mM

Question: With `Br.CN(C)CCCOc1ccccc1-[n+]1nc(-c2ccc3c(c2)OCO3)nn1-c1nc(C(F)F)c(Cl)s1.O=N[O-]` [Example 3, 5-Benzo[1,3 dioxol-5-yl]-3-[2-(3-dimethylhydrogenammoniun)propoxy-phenyl]-2-(5-chloro-4-difluoromethyl-thiazol-2-yl)-2 H-tetrazolium bromo nitrite salt] as the molecule, how does the “Solubilility” value [1] read?
Answer: 9 mM

Question: And the “shape of formazan absorbance versus wavelength curve” value [2]?
Answer: relatively flat

Question: For `COc1cc(-c2nn(-c3nc(C(F)F)c(Cl)s3)[n+](-c3ccccc3OCCC[N+](C)(C)C)n2)ccc1OCCC[N+](C)(C)C.O=N[O-].[Br-].[Br-]` [Example 6, 5-[4-(3-trimethylammonium)propoxy-3-methoxy-phenyl]-3-[2-(3-trimethylammonium)propoxy-phenyl]-2-(5-chloro-4-difluoromethyl-thiazol-2-yl)-2H-tetrazolium dibromo nitrite salt], which “Solubilility” value [1, 3] is on record?
Answer: 181 mM

Question: And the “shape of formazan absorbance versus wavelength curve” value [2]?
Answer: relatively flat

Question: For “5-Benzo[1,3 dioxol-5-yl]-3-[2-(3-trimethylammonium) propoxy-phenyl]-2-(6-methoxynapthylthiazol-2-yl)-2 H-tetrazolium bromo nitrite salt [Example 5]”, which “shape of formazan absorbance versus wavelength curve” value [2] is on record?
Answer: rising absorbance verses wavelength curve

Question: Which results are given for `CCOc1ccc2nc(-n3nc(-c4ccc(OCCC[N+](C)(C)C)c(OC)c4)n[n+]3-c3ccccc3OCCC[N+](C)(C)C)sc2c1.O=N[O-].[Br-].[Br-]` [Example 7]?
Answer: Solubilility [1]: 169 mM; shape of formazan absorbance versus wavelength curve [2]: relatively flat

Question: Which “shape of formazan absorbance versus wavelength curve” value [2] does the source give for “5-Benzo[1,3 dioxol-5-yl]-3-[2-(3-trimethylammonium) propoxy-phenyl]-2-(5-chloro-4-difluoromethyl-thiazol-2-yl)-2H-tetrazolium bromo nitrite salt [Example 1]” here?
Answer: relatively flat

Question: For “5-Benzo[1,3 dioxol-5-yl]-3-[2-(3-trimethylammonium) propoxy-phenyl]-2-(5-chloro-4-difluoromethyl-thiazol-2-yl)-2 H-tetrazolium bromo tetrafluoroborate salt [Example 2]”, which “Solubilility” value [1] is on record?
Answer: 5 mM

Question: And the “shape of formazan absorbance versus wavelength curve” value [2]?
Answer: relatively flat

Question: Which “shape of formazan absorbance versus wavelength curve” value [2] does the source give for “5-[4-(3-trimethylammonium)propoxy-3-methoxy-phenyl]-3-[2-(3-trimethylammonium) propoxy-phenyl]-2-(6-bromo-benzothiazol-2-yl)-2H-tetrazolium dibromo nitrite salt [Example 8]” here?
Answer: relatively flat

Question: For “5-Benzo[1,3 dioxol-5-yl]-3-[2-(3-trimethylammonium) propoxy-phenyl]-2(benzothiazol-2-yl)-2 H-tetrazolium bromo nitrite salt [Example 4]”, which “shape of formazan absorbance versus wavelength curve” value [2] is on record?
Answer: relatively flat
